These results are taken from patent US7482348B2, “Piperazinyl substituted cyclohexane-1,4-diamines” (Janssen Pharmaceutica N.V., priority 2005, dated 2009).

SMILES strings stand for the structures.

Test [1] deals with T1, α1b-AR (Homo sapiens, UniProt P35368).
T1 construct: expressed in transfected cells; host or cells: COS-7 (African green monkey kidney) membranes
T1 sequence (P35368 1-520): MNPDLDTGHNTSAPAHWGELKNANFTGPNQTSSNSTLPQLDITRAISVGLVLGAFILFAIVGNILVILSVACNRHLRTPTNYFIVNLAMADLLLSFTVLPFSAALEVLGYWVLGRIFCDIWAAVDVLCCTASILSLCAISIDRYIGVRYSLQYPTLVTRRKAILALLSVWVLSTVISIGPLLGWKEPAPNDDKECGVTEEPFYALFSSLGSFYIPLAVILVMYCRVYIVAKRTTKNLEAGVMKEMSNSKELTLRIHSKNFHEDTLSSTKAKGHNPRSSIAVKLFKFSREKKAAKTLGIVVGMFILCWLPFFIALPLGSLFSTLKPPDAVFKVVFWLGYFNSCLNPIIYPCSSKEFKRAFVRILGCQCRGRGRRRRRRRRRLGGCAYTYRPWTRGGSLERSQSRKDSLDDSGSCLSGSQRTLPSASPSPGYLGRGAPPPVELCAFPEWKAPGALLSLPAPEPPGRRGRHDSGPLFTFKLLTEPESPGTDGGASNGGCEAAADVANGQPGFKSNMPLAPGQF
In words: α1-Adrenergic receptor radio-ligand (125I-HEAT) binding assay, α1b subtype. The following applies: membranes of transfected COS-7 cells, 125I-HEAT 50 pM. The procedure:
(§1) α1-Adrenergic Receptor Binding Assay
(§2) Preparation of COS Cell Membranes
(§3) Membranes were prepared from COS-7 cells (African Green monkey kidney SV40-transformed cells) that had been transfected with one of the three α1-AR subtypes (Genbank accession number for the α1a subtype: AF013261; Genbank accession number for the α1b subtype: NM000679; Genbank accession number for the α1d subtype: NM000678) using the following method: COS cells from ten 100 mm tissue culture plates were scraped into a 5 mL volume of TE (a mixture of 50 mM Tris-HCl, 5 mM EDTA, pH 7.4). The cell suspension was disrupted with a Brinkman Polytron (at a setting of 8) for 10 sec. The disrupted cells were centrifuged at 1000×g for 10 min at 4° C. Supernatants were centrifuged at 34,500×g for 20 min at 4° C. The membrane pellets were suspended in a 2 mL volume of TNE (a mixture of 50 mM Tris-HCl, 5 mM EDTA and 150 mM NaCl at pH 7.4). An aliquot of the membrane suspension was stored at −70° C. until use. The protein concentration was determined using the BioRad “DC” protein assay kit following membrane solubilization with Triton X-100.
(§4) Radio-ligand Binding Assay
(§5) Triplicate determinations of radio-ligand binding in the presence of increasing concentrations of testing compound were made. The reagents were added to 96-well polypropylene plate wells. Each assay well contained 140 μL TNE, 25 μL ^125I-2-(β-4-hydroxyphenyl)ethylaminomethyltetralone (^125I-HEAT) (specific activity 2200 Ci/mmol, Dupont-New England Nuclear, 50 pM final), 10 μL testing compound dissolved in dimethyl sulfoxide (DMSO) (1 pM to 10 μM in half-log increments, final), and 25 μL appropriate α1-AR membrane subtype suspension in TNE (0.5 ng/μL for the α1a and α1b subtypes and 13 ng/μL for the α1d subtype). The plate was incubated at rt for 1 hr. The contents of the wells were filtered through a glass filter (type C) (GF/C) membrane Unifilter plate (Packard Instruments) using the Packard Filtermate cell harvester. The filter plates were dried in a vacuum oven for 30 min at 40° C. 25 μL Microscint 20 liquid scintillation fluid (Packard Instuments) was added to each well. The radioactive content was analyzed in the TopCount microplate scintillation counter (Packard Instruments).
(§6) The Ki values (in nM) shown in Table 1 were determined using GraphPad Prism software.

The target of test [2] is T2, α1a-AR (Homo sapiens, UniProt P35348).
T2 construct: expressed in transfected cells; host or cells: COS-7 (African green monkey kidney) membranes
T2 sequence (P35348 1-455 isoform P35348-4): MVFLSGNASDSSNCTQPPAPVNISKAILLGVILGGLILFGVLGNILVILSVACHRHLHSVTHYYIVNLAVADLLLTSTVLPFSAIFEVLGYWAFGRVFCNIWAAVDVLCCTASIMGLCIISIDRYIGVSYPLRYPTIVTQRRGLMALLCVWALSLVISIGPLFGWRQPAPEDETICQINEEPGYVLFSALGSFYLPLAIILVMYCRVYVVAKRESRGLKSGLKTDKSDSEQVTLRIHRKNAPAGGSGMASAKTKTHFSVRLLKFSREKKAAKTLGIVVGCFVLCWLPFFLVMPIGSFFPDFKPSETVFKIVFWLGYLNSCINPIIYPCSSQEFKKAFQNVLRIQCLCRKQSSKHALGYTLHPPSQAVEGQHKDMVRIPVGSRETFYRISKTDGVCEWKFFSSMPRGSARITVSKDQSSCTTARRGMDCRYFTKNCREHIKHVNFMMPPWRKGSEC
In words: α1-Adrenergic receptor radio-ligand (125I-HEAT) binding assay, α1a subtype. The following applies: membranes of transfected COS-7 cells, 125I-HEAT 50 pM. The procedure: as §1, §2, §3, §4, §5, §6

Test [3] concerns the target T3, α1d-AR (Homo sapiens, UniProt P25100).
T3 construct: expressed in transfected cells; host or cells: COS-7 (African green monkey kidney) membranes
T3 sequence (P25100 1-572): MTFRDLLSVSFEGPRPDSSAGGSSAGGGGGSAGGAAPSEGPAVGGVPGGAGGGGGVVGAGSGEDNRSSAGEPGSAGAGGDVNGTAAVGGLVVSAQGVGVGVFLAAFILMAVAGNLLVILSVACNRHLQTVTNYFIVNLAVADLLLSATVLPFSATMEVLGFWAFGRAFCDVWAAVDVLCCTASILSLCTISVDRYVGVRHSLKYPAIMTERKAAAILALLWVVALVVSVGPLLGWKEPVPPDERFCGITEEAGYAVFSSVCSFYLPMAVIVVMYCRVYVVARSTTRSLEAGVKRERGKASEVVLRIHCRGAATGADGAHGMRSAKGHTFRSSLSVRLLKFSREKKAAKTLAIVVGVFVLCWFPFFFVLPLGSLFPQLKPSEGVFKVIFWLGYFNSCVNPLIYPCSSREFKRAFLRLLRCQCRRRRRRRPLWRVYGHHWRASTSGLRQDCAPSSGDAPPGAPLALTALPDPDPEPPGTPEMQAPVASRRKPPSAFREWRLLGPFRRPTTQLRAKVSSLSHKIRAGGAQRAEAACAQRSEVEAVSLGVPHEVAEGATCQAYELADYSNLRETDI
In words: α1-Adrenergic receptor radio-ligand (125I-HEAT) binding assay, α1d subtype. The following applies: membranes of transfected COS-7 cells, 125I-HEAT 50 pM. Here is the method:
as §1, §2, §3, §4, §5, §6

The subject of test [4] is α1a and α1d subtypes over the α1b subtype. Particulars: cited from earlier work.

In the case of `O=S(=O)(N[C@H]1CC[C@@H](N2CCN(c3ncccc3OCC3CC3)CC2)CC1)c1cc(Cl)ccc1F` [Cpd 11, 5-chloro-N-cis-{4-[4-(3-cyclopropylmethoxy-pyridin-2-yl)-piperazin-1-yl]-cyclohexyl}-2-fluoro-benzenesulfonamide], the results for the Ki in test [1], in test [2] and in test [3] were 952 nM, 35.7 nM and 43.6 nM, respectively.
As for `CCOc1ccccc1OCCN[C@H](C)Cc1ccc(OC)c(S(N)(=O)=O)c1` [Tamsulosin], the “selectivity for the α1a and α1d subtypes over the α1b subtype” value in test [4] is given as “about 15 fold”.
In the case of `CC(C)Oc1cccnc1N1CCN([C@H]2CC[C@@H](NS(=O)(=O)c3cc(Cl)ccc3F)CC2)CC1` [Cpd 7, 5-chloro-2-fluoro-N-cis-{4-[4-(3-isopropoxy-pyridin-2-yl)-piperazin-1-yl]-cyclohexyl}-benzenesulfonamide], the Ki (commonly a dissociation constant, usually derived from enzyme kinetics or from competition with a known ligand) in test [1] was determined as 1860 nM; in test [2] it was 44.7 nM; in test [3], 15.3 nM.
In the same order, the values of `COc1ccc(S(=O)(=O)N[C@H]2CC[C@@H](N3CCN(c4ncccc4OC(C)C)CC3)CC2)cc1OC` [Cpd 3, N-cis-{4-[4-(3-isopropoxy-pyridin-2-yl)-piperazin-1-yl]-cyclohexyl}-3,4-dimethoxy-benzenesulfonamide] are 112 nM, 61 nM and 19 nM.
In the same order, the values of `COc1ccc(Cl)cc1S(=O)(=O)N[C@H]1CC[C@@H](N2CCN(c3ncccc3OC(C)C)CC2)CC1` [Cpd 5, 5-chloro-N-cis-{4-[4-(3-isopropoxy-pyridin-2-yl)-piperazin-1-yl]-cyclohexyl}-2-methoxy-benzenesulfonamide] are 399 nM, 10.7 nM and 12.4 nM.
Turning to `COc1ccc(S(=O)(=O)N[C@H]2CC[C@@H](N3CCN(c4ncccc4OCC4CC4)CC3)CC2)cc1OC` [Cpd 1, N-cis-{4-[4-(3-cyclopropylmethoxy-pyridin-2-yl)-piperazin-1-yl]-cyclohexyl}-3,4-dimethoxy-benzenesulfonamide], the Ki came to 364 nM in test [1], 189 nM in test [2] and 64 nM in test [3].
For `COc1ccc(Cl)cc1S(=O)(=O)N[C@H]1CC[C@@H](N2CCN(c3ncccc3OCC3CC3)CC2)CC1` [Cpd 9, 5-chloro-N-cis-{4-[4-(3-cyclopropylmethoxy-pyridin-2-yl)-piperazin-1-yl]-cyclohexyl}-2-methoxy-benzenesulfonamide], the Ki in test [1] was 601 nM; in test [2], 18.7 nM; in test [3], 48.3 nM.
